According to patent US11306078B2, “Piperidine CXCR7 receptor modulators” (IDORSIA PHARMACEUTICALS LTD., priority 2016, dated 2022):

These compounds were tested against human chemokine receptor CXCR7 (Homo sapiens (Human), UniProt P25106) (assay: Tango CXCR7-bla U2OS beta-arrestin recruitment assay (beta-lactamase reporter, FRET), antagonism of CXCL12/SDF1-α). Details: antagonistic effect on CXCR7; Tango CXCR7-bla U2OS cells, CXCL12/SDF1-α at its EC80.
Type: cell-based
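Also: compounds preincubated 15 min before CXCL12 addition, then 22 h at 37 °C, FRET emission ratio read with CCF4-AM substrate after 2 h.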

human chemokine receptor CXCR7, sequence (P25106 whole entry): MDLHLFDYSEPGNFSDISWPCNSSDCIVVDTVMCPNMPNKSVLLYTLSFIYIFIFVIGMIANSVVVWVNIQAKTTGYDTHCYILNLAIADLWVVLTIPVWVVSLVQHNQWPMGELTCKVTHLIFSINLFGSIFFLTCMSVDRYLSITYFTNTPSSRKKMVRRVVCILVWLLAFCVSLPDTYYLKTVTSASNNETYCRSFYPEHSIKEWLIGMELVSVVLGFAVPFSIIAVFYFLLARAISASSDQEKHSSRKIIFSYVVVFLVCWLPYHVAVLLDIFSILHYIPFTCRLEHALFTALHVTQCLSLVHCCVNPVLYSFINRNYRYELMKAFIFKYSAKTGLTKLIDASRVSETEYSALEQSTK

Compound	IC50 [nM]
O=C(N[C@@H]1CCN(C2CCCCC2)C[C@H]1C(=O)NCCN1CCCC1=O)c1cc(-c2ccc(F)cc2F)on1 (racemic) [Example 1.041, rac-(3R*,4R*)-1-Cyclohexyl-4-{[5-(2,4-difluoro-phenyl)-isoxazole-3-carbonyl]-amino}-piperidine-3-carboxylic acid [2-(2-oxo-pyrrolidin-1-yl)-ethyl]-amide]	91
Cn1ccc(CNC(=O)[C@@H]2CN(C3CCCCC3)CC[C@H]2NC(=O)c2cc(-c3ccc(F)cc3F)on2)n1 (racemic) [Example 1.042, rac-(3R*,4R*)-1-Cyclohexyl-4-{[5-(2,4-difluoro-phenyl)-isoxazole-3-carbonyl]-amino}-piperidine-3-carboxylic acid (1-methyl-1H-pyrazol-3-ylmetyl)-amide]	532
CCc1noc(CNC(=O)[C@@H]2CN(C3CCCCC3)CC[C@H]2NC(=O)c2cc(-c3ccc(F)cc3F)on2)n1 (racemic) [Example 1.047, rac-(3R*,4R*)-1-Cyclohexyl-4-{[5-(2,4-difluoro-phenyl)-isoxazole-3-carbonyl]-amino}-piperidine-3-carboxylic acid (3-ethyl-[1,2,4]oxadiazol-5-ylmethyl)-amide]	127
O=C(N[C@@H]1CCN(C2CCCCC2)C[C@H]1C(=O)N1CC(F)(F)C1)c1cc(-c2ccc(F)cc2F)on1 (racemic) [Example 1.052, rac-5-(2,4-Difluoro-phenyl)-isoxazole-3-carboxylic acid [(3R*,4R*)-1-cyclohexyl-3-(3,3-difluoro-azetidine-1-carbonyl)-piperidin-4-yl]-amide]	630
CC(C)N(CCOCCO)C(=O)[C@@H]1CN(C2CCCCC2)CC[C@H]1NC(=O)c1cc(-c2ccc(F)cc2F)on1 (racemic) [Example 1.055, rac-(3R*,4R*)-1-Cyclohexyl-4-{[5-(2,4-difluoro-phenyl)-isoxazole-3-carbonyl]-amino}-piperidine-3-carboxylic acid [2-(2-hydroxy-ethoxy)-ethyl]-isopropyl-amide]	232

Results, then the compound that gave them:

IC50 [nM]	Compound
843	O=C(N[C@@H]1CCN(C2CCCCC2)C[C@H]1C(=O)NCc1c[nH]cn1)c1cc(-c2ccc(F)cc2F)on1 (racemic) [Example 1.043, rac-(3R*,4R*)-1-Cyclohexyl-4-{[5-(2,4-difluoro-phenyl)-isoxazole-3-carbonyl]-amino}-piperidine-3-carboxylic acid (1H-imidazol-4-ylmethyl)-amide]
565	Cc1cc(CNC(=O)[C@@H]2CN(C3CCCCC3)CC[C@H]2NC(=O)c2cc(-c3ccc(F)cc3F)on2)nn1C (racemic) [Example 1.045, rac-(3R*,4R*)-1-Cyclohexyl-4-{[5-(2,4-difluoro-phenyl)-isoxazole-3-carbonyl]-amino}-piperidine-3-carboxylic acid (1,5-dimethyl-1H-pyrazol-3-ylmethyl)-amide]
275	O=C(N[C@@H]1CCN(C2CCCCC2)C[C@H]1C(=O)NCc1cccnc1)c1cc(-c2ccc(F)cc2F)on1 (racemic) [Example 1.048, rac-(3R*,4R*)-1-Cyclohexyl-4-{[5-(2,4-difluoro-phenyl)-isoxazole-3-carbonyl]-amino}-piperidine-3-carboxylic acid (pyridin-3-ylmethyl)-amide]
49	O=C(N[C@@H]1CCN(C2CCCCC2)C[C@H]1C(=O)NCc1nccs1)c1cc(-c2ccc(F)cc2F)on1 (racemic) [Example 1.051, rac-(3R*,4R*)-1-Cyclohexyl-4-{[5-(2,4-difluoro-phenyl)-isoxazole-3-carbonyl]-amino}-piperidine-3-carboxylic acid (thiazol-2-ylmethyl)-amide]
311	Cc1cc(CNC(=O)[C@@H]2CN(C3CCCCC3)CC[C@H]2NC(=O)c2cc(-c3ccc(F)cc3F)on2)n(C)n1 (racemic) [Example 1.054, rac-(3R*,4R*)-1-Cyclohexyl-4-{[5-(2,4-difluoro-phenyl)-isoxazole-3-carbonyl]-amino}-piperidine-3-carboxylic acid (2,5-dimethyl-2H-pyrazol-3-ylmethyl)-amide]
